From patent US20240368135A1 (VERTEX PHARMACEUTICALS INCORPORATED, priority 2021, published 2024)
Where two headings read alike, the source gives them in different places.

Target: human NaV 1.8 (Homo sapiens, UniProt Q9Y5Y9)
Test: E-VIPR assay detecting and measuring NaV inhibition properties
Format: cell-based
Conditions: HEK cells expressing truncated human NaV 1.8
Outline: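 HEK cells expressing truncated, fully active human NaV1.8, with KIR2.1 BacMam co-transduction, were loaded with CC2-DMPE/DiSBAC6(3) voltage-sensing dyes for 20 min at room temperature. Compounds were tested in 11-point 3-fold dilutions (300 nM top final), optionally with 25% human serum, under electrical stimulation with FRET read-out.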

[1] = no human serum, read-out: IC50 in the E-VIPR Assay
[2] = in the presence of human serum (compound numbers followed by *), read-out: IC50 in the E-VIPR Assay, performed in the presence of human serum

human NaV 1.8, sequence (Q9Y5Y9 126-399 limits assumed): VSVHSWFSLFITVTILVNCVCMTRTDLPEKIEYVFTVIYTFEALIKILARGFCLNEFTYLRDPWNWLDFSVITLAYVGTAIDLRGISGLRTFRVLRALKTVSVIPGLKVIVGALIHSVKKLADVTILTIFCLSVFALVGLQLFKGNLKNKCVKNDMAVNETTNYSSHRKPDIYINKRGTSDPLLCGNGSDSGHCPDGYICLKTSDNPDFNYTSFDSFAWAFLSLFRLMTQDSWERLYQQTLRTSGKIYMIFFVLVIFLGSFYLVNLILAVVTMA
human NaV 1.8, sequence (Q9Y5Y9 660-890 limits assumed): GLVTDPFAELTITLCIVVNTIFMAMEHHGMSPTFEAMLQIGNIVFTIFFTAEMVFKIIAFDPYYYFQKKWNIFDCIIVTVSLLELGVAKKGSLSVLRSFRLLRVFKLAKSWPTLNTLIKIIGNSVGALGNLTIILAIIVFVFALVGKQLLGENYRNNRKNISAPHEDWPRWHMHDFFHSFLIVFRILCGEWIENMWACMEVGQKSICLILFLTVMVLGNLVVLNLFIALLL
human NaV 1.8, sequence (Q9Y5Y9 1148-1722 limits assumed): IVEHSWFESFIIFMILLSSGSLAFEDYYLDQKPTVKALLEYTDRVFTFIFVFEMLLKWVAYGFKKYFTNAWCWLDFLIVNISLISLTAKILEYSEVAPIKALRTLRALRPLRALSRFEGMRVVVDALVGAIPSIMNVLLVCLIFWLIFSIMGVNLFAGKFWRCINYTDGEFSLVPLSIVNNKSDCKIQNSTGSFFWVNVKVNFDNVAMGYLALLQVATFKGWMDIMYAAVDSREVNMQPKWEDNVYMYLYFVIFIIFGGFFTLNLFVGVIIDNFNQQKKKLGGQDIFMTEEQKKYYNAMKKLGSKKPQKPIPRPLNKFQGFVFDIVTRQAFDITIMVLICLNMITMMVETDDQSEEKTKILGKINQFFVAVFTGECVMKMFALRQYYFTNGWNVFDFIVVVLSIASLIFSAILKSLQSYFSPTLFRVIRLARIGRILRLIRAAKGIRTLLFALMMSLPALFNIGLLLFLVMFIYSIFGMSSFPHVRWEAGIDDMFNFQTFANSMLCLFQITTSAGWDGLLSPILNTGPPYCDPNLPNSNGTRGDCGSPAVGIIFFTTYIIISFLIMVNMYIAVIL

SMILES	IC50 [1]	IC50 [2]
COc1c([C@H]2[C@H](C(=O)Nc3ccnc(N4CCC[C@@H]4CO)c3)O[C@@](C)(C(F)(F)F)[C@H]2C)ccc(F)c1F [Compound 520, (2R,3S,4S,5R)-3-(3,4-difluoro-2-methoxy-phenyl)-N-[2-[(2R)-2-(hydroxymethyl)pyrrolidin-1-yl]-4-pyridyl]-4,5-dimethyl-5-(trifluoromethyl)tetrahydrofuran-2-carboxamide]	10 to 100 nM	–
COc1c([C@H]2[C@H](C(=O)Nc3ccnc(C(CO)OC)c3)O[C@@](C)(C(F)(F)F)[C@H]2C)ccc(F)c1F (single isomer, unassigned) [Compound 249, rel-(2R*,3S*,4S*,5R*)-3-(3,4-difluoro-2-methoxyphenyl)-N-(2-(2-hydroxy-1-methoxyethyl)pyridin-4-yl)-4,5-dimethyl-5-(trifluoromethyl)tetrahydrofuran-2-carboxamide]	–	< 10 nM
COc1c([C@H]2[C@H](C(=O)Nc3ccc(-c4ncc[nH]4)nc3)O[C@@](C)(C(F)(F)F)[C@H]2C)ccc(F)c1F [Compound 193, (2R,3S,4S,5R)-N-(6-(1H-imidazol-2-yl)pyridin-3-yl)-3-(3,4-difluoro-2-methoxyphenyl)-4,5-dimethyl-5-(trifluoromethyl)tetrahydrofuran-2-carboxamide]	10 to 100 nM	–
Cc1nn(C(F)F)cc1NC(=O)[C@@H]1O[C@@](C)(C(F)(F)F)[C@@H](C)[C@H]1c1ccc(F)c(F)c1CN(C)C1CCOCC1 [Compound 669, (2R,3S,4S,5R)-3-(3,4-difluoro-2-((methyl(tetrahydro-2H-pyran-4-yl)amino)methyl)phenyl)-N-(1-(difluoromethyl)-3-methyl-1H-pyrazol-4-yl)-4,5-dimethyl-5-(trifluoromethyl)tetrahydrofuran-2-carboxamide]	10 to 100 nM	–
COc1c([C@H]2[C@H](C(=O)Nc3cc(C(O)CO)ncc3C)O[C@@](C)(C(F)(F)F)[C@H]2C)ccc(F)c1F (single isomer, unassigned) [Compound 205, rel-(2R*,3S*,4S*,5R*)-3-(3,4-difluoro-2-methoxyphenyl)-N-(2-(1,2-dihydroxyethyl)-5-methylpyridin-4-yl)-4,5-dimethyl-5-(trifluoromethyl)tetrahydrofuran-2-carboxamide]	< 10 nM	–
Cc1c(F)ccc(C2C(C(=O)Nc3ccnc(S(C)(=O)=O)c3)OC(C)(C(F)(F)F)C2C)c1OC(F)F (stereo not drawn) [Compound 97, 3-[2-(difluoromethoxy)-4-fluoro-3-methyl-phenyl]-4,5-dimethyl-N-(2-methylsulfonyl-4-pyridyl)-5-(trifluoromethyl)tetrahydrofuran-2-carboxamide]	< 10 nM	–
CCOc1c([C@@H]2[C@@H](C(=O)Nc3ccn(C)c(=O)c3)O[C@](C)(C(F)(F)F)[C@@H]2C)ccc(F)c1F (stereo in doubt) [Compound 102, rel-(2S,3R,4R,5S)-3-(2-ethoxy-3,4-difluorophenyl)-4,5-dimethyl-N-(1-methyl-2-oxo-1,2-dihydropyridin-4-yl)-5-(trifluoromethyl)tetrahydrofuran-2-carboxamide]	≥ 1000 nM	–
COCCOc1cc(NC(=O)C2OC(C)(C(F)(F)F)C(C)C2c2ccc(F)c(F)c2OC)cnn1 (single isomer, unassigned) [Compound 34, 3-(3,4-difluoro-2-methoxy-phenyl)-N-[6-(2-methoxyethoxy)pyridazin-4-yl]-4,5-dimethyl-5-(trifluoromethyl)tetrahydrofuran-2-carboxamide]	10 to 100 nM	–
COc1c([C@H]2[C@H](C(=O)Nc3ccc(CC4CCNCC4)nc3)O[C@@](C)(C(F)(F)F)[C@H]2C)ccc(F)c1F [Compound 215, (2R,3S,4S,5R)-3-(3,4-difluoro-2-methoxyphenyl)-4,5-dimethyl-N-(6-(piperidin-4-ylmethyl)pyridin-3-yl)-5-(trifluoromethyl)tetrahydrofuran-2-carboxamide]	10 to 100 nM	–
COc1c([C@H]2[C@H](C(=O)Nc3ccc4nc(CO)cn4c3)O[C@@](C)(C(F)(F)F)[C@H]2C)ccc(F)c1F [Compound 264, (2R,3S,4S,5R)-3-(3,4-difluoro-2-methoxyphenyl)-N-(2-(hydroxymethyl)imidazo[1,2-a]pyridin-6-yl)-4,5-dimethyl-5-(trifluoromethyl)tetrahydrofuran-2-carboxamide]	10 to 100 nM	–
Cc1cc(NC(=O)[C@@H]2O[C@@](C)(C(F)(F)F)[C@@H](C)[C@H]2c2ccc(F)c(F)c2OCCO)ccn1 [Compound 560, (2R,3S,4S,5R)-3-(3,4-difluoro-2-(2-hydroxyethoxy)phenyl)-4,5-dimethyl-N-(2-methylpyridin-4-yl)-5-(trifluoromethyl)tetrahydrofuran-2-carboxamide]	10 to 100 nM	–
COc1c([C@@H]2[C@@H](C(=O)Nc3ccnc(C(C)O)c3)O[C@](C)(C(F)(F)F)[C@@H]2C)ccc(F)c1F (single isomer, unassigned) [Compound 531]	–	≥ 1000 nM
COc1c([C@H]2[C@H](C(=O)Nc3ccc(C(F)CO)nc3)O[C@@](C)(C(F)(F)F)[C@H]2C)ccc(F)c1F (single isomer, unassigned) [Compound 438, rel-(2R*,3S*,4S*,5R*)-3-(3,4-difluoro-2-methoxyphenyl)-N-(6-(1-fluoro-2-hydroxyethyl)pyridin-3-yl)-4,5-dimethyl-5-(trifluoromethyl)tetrahydrofuran-2-carboxamide]	10 to 100 nM	–
C[C@H]1[C@@H](c2ccc(F)c(F)c2OCCN2CCOCC2)[C@H](C(=O)Nc2cc(C(N)=O)nn2C)O[C@@]1(C)C(F)(F)F [Compound 592, 5-((2R,3S,4S,5R)-3-(3,4-difluoro-2-(2-morpholinoethoxy)phenyl)-4,5-dimethyl-5-(trifluoromethyl)tetrahydrofuran-2-carboxamido)-1-methyl-1H-pyrazole-3-carboxamide]	10 to 100 nM	–
COc1c(C2C(C(=O)Nc3ccnc(C(O)C(C)O)c3)OC(C)(C(F)(F)F)C2C)ccc(F)c1C (single isomer, unassigned) [Compound 142]	–	≥ 1000 nM
COc1c([C@H]2[C@H](C(=O)Nc3ccnc(N4C(=O)[C@H]5C[C@@H]4CN5)c3)O[C@@](C)(C(F)(F)F)[C@H]2C)ccc(F)c1F [Compound 482, (2R,3S,4S,5R)-3-(3,4-difluoro-2-methoxyphenyl)-4,5-dimethyl-N-(2-((1R,4R)-3-oxo-2,5-diazabicyclo[2.2.1]heptan-2-yl)pyridin-4-yl)-5-(trifluoromethyl)tetrahydrofuran-2-carboxamide]	10 to 100 nM	–
CCOc1c(C2C(C(=O)Nc3ccnc(S(C)(=N)=O)c3)OC(C)(C(F)(F)F)C2C)ccc(F)c1F (single isomer, unassigned) [Compound 109, 3-(2-ethoxy-3,4-difluoro-phenyl)-4,5-dimethyl-N-[2-(methylsulfonimidoyl)-4-pyridyl]-5-(trifluoromethyl)tetrahydrofuran-2-carboxamide]	100 to 1000 nM	–
Cc1conc1NC(=O)[C@@H]1O[C@@](C)(C(F)(F)F)[C@@H](C)[C@H]1c1ccc(F)c(F)c1OCCO [Compound 545, (2R,3S,4S,5R)-3-(3,4-difluoro-2-(2-hydroxyethoxy)phenyl)-4,5-dimethyl-N-(4-methylisoxazol-3-yl)-5-(trifluoromethyl)tetrahydrofuran-2-carboxamide]	10 to 100 nM	–
COCC(NC(C)C)c1ccc(NC(=O)[C@@H]2O[C@@](C)(C(F)(F)F)[C@@H](C)[C@H]2c2ccc(F)c(F)c2OC)cn1 (single isomer, unassigned) [Compound 421, rel-(2R*,3S*,4S*,5R*)-3-(3,4-difluoro-2-methoxyphenyl)-N-(6-(1-(isopropylamino)-2-methoxyethyl)pyridin-3-yl)-4,5-dimethyl-5-(trifluoromethyl)-tetrahydrofuran-2-carboxamide]	100 to 1000 nM	–
COc1c([C@H]2[C@H](C(=O)Nc3ccnc(C(CO)OC)c3)O[C@@](C)(C(F)(F)F)[C@H]2C)ccc(F)c1F (single isomer, unassigned) [Compound 248, rel-(2R*,3S*,4S*,5R*)-3-(3,4-difluoro-2-methoxyphenyl)-N-(2-(2-hydroxy-1-methoxyethyl)pyridin-4-yl)-4,5-dimethyl-5-(trifluoromethyl)tetrahydrofuran-2-carboxamide]	< 10 nM	–
COc1c([C@H]2[C@H](C(=O)Nc3ccc4nc(C(=O)N(C)C)cn4c3)O[C@@](C)(C(F)(F)F)[C@H]2C)ccc(F)c1F [Compound 261, 6-((2R,3S,4S,5R)-3-(3,4-difluoro-2-methoxyphenyl)-4,5-dimethyl-5-(trifluoromethyl)tetrahydrofuran-2-carboxamido)-N,N-dimethylimidazo[1,2-a]pyridine-2-carboxamide]	10 to 100 nM	–
Cc1ncc(NC(=O)[C@@H]2O[C@@](C)(C(F)(F)F)[C@@H](C)[C@H]2c2ccc(F)c(F)c2OCCO)cn1 [Compound 569, (2R,3S,4S,5R)-3-(3,4-difluoro-2-(2-hydroxyethoxy)phenyl)-4,5-dimethyl-N-(2-methylpyrimidin-5-yl)-5-(trifluoromethyl)tetrahydrofuran-2-carboxamide]	100 to 1000 nM	–
COc1c([C@H]2[C@H](C(=O)Nc3ccnc(N4C[C@@H]5C[C@@H](N5)C4=O)c3)O[C@@](C)(C(F)(F)F)[C@H]2C)ccc(F)c1F (single isomer, unassigned) [Compound 492, rel-(2R*,3S*,4S*,5R*)-3-(3,4-difluoro-2-methoxyphenyl)-4,5-dimethyl-N-(2-((1R,5S)-2-oxo-3,6-diazabicyclo[3.1.1]heptan-3-yl)pyridin-4-yl)-5-(trifluoromethyl)tetrahydrofuran-2-carboxamide]	10 to 100 nM	–
COc1c([C@H]2C[C@@](C)(C(F)(F)F)O[C@@H]2C(=O)Nc2ccnc([C@H](O)CO)c2)ccc(F)c1C (single isomer, unassigned) [Compound 703]	–	≥ 1000 nM
